From patent publication US12377104B1, “Methods for treating a fatty liver disease” (Madrigal Pharmaceuticals, Inc., priority 2024, dated 2025)

What was measured:
[1] = human, in vivo
Description: Following once daily doses, steady state was typically reached within 3 to 6 days of dosing.

[2] = test system: adults with biopsy-confirmed NASH and fibrosis stage F1B, F2, or F3; test: MAESTRO-NASH: sensitivity analyses of primary endpoints (consensus, multiple imputation, GEE, tipping point, paired biopsies); type: in vivo, human; settings: for Fibrosis improvement at Week 52, % / Fibrosis improvement at Week 52, no. / NASH resolution at Week 52, % / NASH resolution at Week 52, no.: GEE analysis; for Difference in percentage of responders, CMH, resmetirom group - placebo, NASH resolution / Difference in percentage of responders, CMH, resmetirom group - placebo, fibrosis improvement / OR of resmetirom group to placebo, NASH resolution / OR of resmetirom group to placebo, fibrosis improvement: GEE model
Procedure: Consensus reads of digitized images of glass slides by the two central pathologists were conducted in cases where the two pathologists scores disagreed as to whether there was a response for either NASH resolution (ballooning 0,1; 2-point NAS reduction and no worsening of fibrosis) OR ≥1 stage fibrosis reduction with no worsening of NAS (primary endpoints) OR a 2-stage reduction in fibrosis with no worsening of NAS. The study pathologists remained blinded to all clinical data, patient ID, and slide/image identity or time of biopsy. Study personnel remain blinded to patient level data and detailed group analyses. In total 387 total assessments took place requiring four Zoom meetings between the pathologists.
Tipping Point Analyses: This analysis imputed missing placebo responses for NASH resolution (in increments from 0% to 100% placebo imputation) and fibrosis response (in increments from 0% up to 35% placebo imputation) at Week 52 as successful responses in order to determine how many missing responses (which were counted in the primary analysis labels as non-responders) could be imputed before losing statistical significance.
Multiple Imputation Analysis: Multiple imputation analyses were conducted where data for patients with missing response at Week 52 were imputed under the missing at random assumption. Data for patients with missing response data at Week 52 were imputed under the missing at random assumption by running a simulation (100 times) which produces a correlated pair of binary 0/1 data for each patient that represents the patient's response status for each pathologist. The statistics were then calculated for each imputation using the same approach as for the primary endpoint. The normalized results from each dataset were combined using Rubin's rule. (Table 17).
General Estimating Equation (GEE) Model Analysis: A generalized estimation equation (GEE) analysis was performed as a sensitivity analysis. This approach treated the biopsy scores from the two pathologists as repeated measures (i.e. correlated binary outcomes) within a patient. Baseline diabetes status, fibrosis stage and interaction term between pathologist and treatment were also included in the model.
Summary of Observed Cases Using In-window Week 52 Paired Liver Biopsies: Supportive analyses were performed on patients with in-window paired Week 52 biopsies. Missing Week 52 biopsies were not imputed.

Protein binding = type: in vitro ADME
[3] = 80 mg (N = 258), in window including a baseline and Week 52 biopsy
[4] = 80 mg (n = 316), (1, 1) = responder per pathologist A and B
[5] = 80 mg (n = 316), Week 52, tipping point analysis, active patients with missing response = non-responders
[6] = 80 mg, (0, 0) = non-responder per both pathologists
[7] = 80 mg, (0, 1) = responder per pathologist B only
[8] = 80 mg, (1, 0) = responder per pathologist A only
[9] = 100 mg (N = 248), in window including a baseline and Week 52 biopsy
[10] = 100 mg (n = 321), (1, 1) = responder per pathologist A and B
[11] = 100 mg (n = 321), Week 52, tipping point analysis, active patients with missing response = non-responders
[12] = 100 mg, (0, 0) = non-responder per both pathologists
[13] = 100 mg, (0, 1) = responder per pathologist B only
[14] = 100 mg, (1, 0) = responder per pathologist A only
[15] = in window including a baseline and Week 52 biopsy
[16] = in-window including a baseline and Week 52 biopsy
[17] = tipping point, Placebo-0% imputed responders (Primary Analysis)
[18] = tipping point, Placebo-10% imputed responders
[19] = tipping point, Placebo-20% imputed responders
[20] = tipping point, Placebo-25% imputed responders
[21] = tipping point, Placebo-30% imputed responders
[22] = tipping point, Placebo-35% imputed responders
[23] = tipping point, Placebo-60% imputed responders
[24] = tipping point, Placebo-67% imputed responders
[25] = tipping point, Placebo-90% imputed responders
[26] = tipping point, Placebo-100% imputed responders

## CC(C)c1cc(Oc2c(Cl)cc(-n3nc(C#N)c(=O)[nH]c3=O)cc2Cl)n[nH]c1=O [Resmetirom, 2-(3,5-dichloro-4-((5-isopropyl-6-oxo-1,6-dihydropyridazin-3-yl)oxy)phenyl)-3,5-dioxo-2,3,4,5-tetrahydro-1,2,4-triazine-6-carbonitrile]
[1]
  exposure increase following once daily dosing: 1.5- to 3 fold
  exposure vs dose: greater than dose proportional
  steady state exposure vs dose: dose proportional
  time to steady state: 3 to 6 days
[2]; [3]
  % Response, Fibrosis improvement: 29.7%
  % Response, NASH resolution: 31.8%
[2]; 80 mg (N = 258), in-window including a baseline and Week 52 biopsy
  % Response, NASH resolution OR fibrosis improvement: 42.2%
[2]; [4]
  Fibrosis improvement at Week 52, %: (16.5) %
  Fibrosis improvement at Week 52, no.: 52
  NASH resolution at Week 52, %: (19.6) %
  NASH resolution at Week 52, no.: 62
[2]; [5]
  % Response, Fibrosis improvement: 24.2%
  % Response, NASH resolution: 25.9%
[2]; 80 mg, Week 52
  Fibrosis improvement, Consensus (sensitivity), % Difference from PBO: 12.2%
  Fibrosis improvement, Consensus (sensitivity), % Response: 24.4%
  Fibrosis improvement, Multiple imputation (sensitivity), % Difference from PBO: 11.4%
  Fibrosis improvement, Multiple imputation (sensitivity), % Response: 29.2%
  NASH resolution, Consensus (sensitivity), % Difference from PBO: 16.8%
  NASH resolution, Consensus (sensitivity), % Response: 24.4%
  NASH resolution, Multiple imputation (sensitivity), % Difference from PBO: 17.7%
  NASH resolution, Multiple imputation (sensitivity), % Response: 31.0%
  Difference in percentage of responders, CMH, resmetirom group - placebo, NASH resolution: 17.5
  Difference in percentage of responders, CMH, resmetirom group - placebo, fibrosis improvement: 9.7
  OR of resmetirom group to placebo, NASH resolution: 3.5
  OR of resmetirom group to placebo, fibrosis improvement: 2.0
[2]; [6]
  Fibrosis improvement at Week 52, %: (68.0) %
  Fibrosis improvement at Week 52, no.: 215
  NASH resolution at Week 52, %: (67.7) %
  NASH resolution at Week 52, no.: 214
[2]; [7]
  Fibrosis improvement at Week 52, %: (8.9) %
  Fibrosis improvement at Week 52, no.: 28
  NASH resolution at Week 52, %: (5.1) %
  NASH resolution at Week 52, no.: 16
[2]; [8]
  Fibrosis improvement at Week 52, %: (6.6) %
  Fibrosis improvement at Week 52, no.: 21
  NASH resolution at Week 52, %: (7.6) %
  NASH resolution at Week 52, no.: 24
[2]; [9]
  % Response, Fibrosis improvement: 33.5%
  % Response, NASH resolution: 38.7%
[2]; 100 mg (N = 248), in-window including a baseline and Week 52 biopsy
  % Response, NASH resolution OR fibrosis improvement: 50.4%
[2]; [10]
  Fibrosis improvement at Week 52, %: (15.9) %
  Fibrosis improvement at Week 52, no.: 51
  NASH resolution at Week 52, %: (19.3) %
  NASH resolution at Week 52, no.: 62
[2]; [11]
  % Response, Fibrosis improvement: 25.9%
  % Response, NASH resolution: 29.9%
[2]; 100 mg, Week 52
  Fibrosis improvement, Consensus (sensitivity), % Difference from PBO: 13.4%
  Fibrosis improvement, Consensus (sensitivity), % Response: 25.5%
  Fibrosis improvement, Multiple imputation (sensitivity), % Difference from PBO: 14.1%
  Fibrosis improvement, Multiple imputation (sensitivity), % Response: 31.9%
  NASH resolution, Consensus (sensitivity), % Difference from PBO: 20.7%
  NASH resolution, Consensus (sensitivity), % Response: 27.7%
  NASH resolution, Multiple imputation (sensitivity), % Difference from PBO: 23.2%
  NASH resolution, Multiple imputation (sensitivity), % Response: 36.0%
  Difference in percentage of responders, CMH, resmetirom group - placebo, NASH resolution: 21.3
  Difference in percentage of responders, CMH, resmetirom group - placebo, fibrosis improvement: 11.0
  OR of resmetirom group to placebo, NASH resolution: 4.2
  OR of resmetirom group to placebo, fibrosis improvement: 2.1
[2]; [12]
  Fibrosis improvement at Week 52, %: (64.2) %
  Fibrosis improvement at Week 52, no.: 206
  NASH resolution at Week 52, %: (59.5) %
  NASH resolution at Week 52, no.: 191
[2]; [13]
  Fibrosis improvement at Week 52, %: (9.3) %
  Fibrosis improvement at Week 52, no.: 30
  NASH resolution at Week 52, %: (4.0) %
  NASH resolution at Week 52, no.: 13
[2]; [14]
  Fibrosis improvement at Week 52, %: (10.6) %
  Fibrosis improvement at Week 52, no.: 34
  NASH resolution at Week 52, %: (17.1) %
  NASH resolution at Week 52, no.: 55
[2]; [15]
  % Difference Resmetirom 80 mg from PBO, Fibrosis improvement: 13.6%
  % Difference Resmetirom 80 mg from PBO, NASH resolution: 20.9%
  % Difference Resmetirom 100 mg from PBO, Fibrosis improvement: 17.2%
  % Difference Resmetirom 100 mg from PBO, NASH resolution: 28.6%
[2]; [16]
  % Difference Resmetirom 80 mg from PBO, NASH resolution OR fibrosis improvement: 23.1%
  % Difference Resmetirom 100 mg from PBO, NASH resolution OR fibrosis improvement: 31.2%
[2]; [17]
  % Difference Resmetirom 80 mg from PBO, Fibrosis improvement: 10.2%
  % Difference Resmetirom 80 mg from PBO, NASH resolution: 16.4%
  % Difference Resmetirom 100 mg from PBO, Fibrosis improvement: 11.8%
  % Difference Resmetirom 100 mg from PBO, NASH resolution: 20.7%
[2]; [18]
  % Difference Resmetirom 80 mg from PBO, Fibrosis improvement: 8.8%
  % Difference Resmetirom 100 mg from PBO, Fibrosis improvement: 10.4%
[2]; [19]
  % Difference Resmetirom 80 mg from PBO, Fibrosis improvement: 7.5%
  % Difference Resmetirom 100 mg from PBO, Fibrosis improvement: 9.1%
[2]; [20]
  % Difference Resmetirom 80 mg from PBO, Fibrosis improvement: 6.9%
  % Difference Resmetirom 100 mg from PBO, Fibrosis improvement: 8.5%
[2]; [21]
  % Difference Resmetirom 80 mg from PBO, Fibrosis improvement: 6.2%
  % Difference Resmetirom 80 mg from PBO, NASH resolution: 12.4%
  % Difference Resmetirom 100 mg from PBO, Fibrosis improvement: 7.8%
  % Difference Resmetirom 100 mg from PBO, NASH resolution: 16.7%
[2]; [22]
  % Difference Resmetirom 80 mg from PBO, Fibrosis improvement: 5.5%
  % Difference Resmetirom 100 mg from PBO, Fibrosis improvement: 7.1%
[2]; [23]
  % Difference Resmetirom 80 mg from PBO, NASH resolution: 8.3%
  % Difference Resmetirom 100 mg from PBO, NASH resolution: 12.7%
[2]; [24]
  % Difference Resmetirom 80 mg from PBO, NASH resolution: 7.4%
  % Difference Resmetirom 100 mg from PBO, NASH resolution: 11.7%
[2]; [25]
  % Difference Resmetirom 80 mg from PBO, NASH resolution: 4.2%
  % Difference Resmetirom 100 mg from PBO, NASH resolution: 18.6%
[2]; [26]
  % Difference Resmetirom 80 mg from PBO, NASH resolution: 2.6%
  % Difference Resmetirom 100 mg from PBO, NASH resolution: 7.0%
Protein binding
  protein-bound: greater than 99%
